One data set deals with Streptococcus sobrinus. The experiment in a line: microbe, parasite or virus in culture. Particulars: read-out: Minimum Inhibitory Concentrations.
The next data set has as its system Salmonella ryphimurium. The data set can be described thus: microbe, parasite or virus in culture. It counts as cell-based. To be noted: Salmonella ryphimurium SL770; read-out: Minimum Inhibitory Concentrations. On the procedure:
(§1) Acne vulgaris may involve a microbial consortium. Although P. acnes may be a prominent member of such a consortium, other uncharacterized bacteria may also participate. The microbial activity of XMP.629 as an acetate gel as described in Example 5 and other commonly used antibiotics was evaluated against a panel of human pathogens using standardized NCCLS protocols. […] Lesser potency was observed against the gram-negative organisms B. fragilis, B. cepacia, P. mirabilis and S. marcescens, which are often refractory to many antimicrobial compounds.

The next data set has as its system Porphyromonas gingivalis. The experiment in a line: microbe, parasite or virus in culture. Format: cell-based. Particulars: Porphyromonas gingivalis 33277; read-out: Minimum Inhibitory Concentrations. On the procedure:
as §1

Data set [1] relates to Actinobacillus actinomycetemcomitans. The experiment in a line: microbe, parasite or virus in culture. Format: cell-based. To be noted: Aggregatibacter actinomycetemcomitans; Actinobacillus actinomycetemcomitans 43718; read-out: Minimum Inhibitory Concentrations. On the procedure:
as §1

For a further data set, the system named is Serratia marcescens. The data set can be described thus: microbe, parasite or virus in culture. To be noted: Serratia marcescens 13880; read-out: Minimum Inhibitory Concentrations. Format: cell-based. On the procedure: as §1
A further data set deals with Burkholderia cepacia. The data set can be described thus: microbe, parasite or virus in culture. Format: cell-based. Particulars: Burkholderia cepacia 25416; read-out: Minimum Inhibitory Concentrations. On the procedure:
as §1

For a further data set, the system named is Escherichia coli. The data set can be described thus: microbe, parasite or virus in culture. It counts as cell-based. To be noted: Escherichia coli, read-out: Minimum Inhibitory Concentrations. On the procedure:
as §1

A further data set deals with Prevotella intermedia. The data set can be described thus: microbe, parasite or virus in culture. It counts as cell-based. To be noted: Prevotella intermedia 25261; read-out: Minimum Inhibitory Concentrations. On the procedure: as §1
For a further data set, the system named is Klebsiella pneumoniae. The experiment in a line: microbe, parasite or virus in culture. Format: cell-based. To be noted: Klebsiella pneumoniae, read-out: Minimum Inhibitory Concentrations. On the procedure:
as §1

In a further data set the test system is Proteus mirabilis. The data set can be described thus: microbe, parasite or virus in culture. It counts as cell-based. To be noted: Proteus mirabilis 29852; read-out: Minimum Inhibitory Concentrations. On the procedure: as §1
A further data set deals with Macrococcus caseolyticus. The data set can be described thus: microbe, parasite or virus in culture. Particulars: Macrococcoides caseolyticum, read-out: Minimum Inhibitory Concentrations.
The subject of data set [2] is Enterococcus faccium (VRE). The experiment in a line: microbe, parasite or virus in culture. Particulars: read-out: Minimum Inhibitory Concentrations.
The subject of a further data set is Pseudomonas aeruginosa. The experiment in a line: microbe, parasite or virus in culture.
The test system of a further data set is Enterococcus hirae. The data set can be described thus: microbe, parasite or virus in culture. To be noted: read-out: Minimum Inhibitory Concentrations.
Another data set deals with Streptococcus mutans. The data set can be described thus: MIC, panel of human pathogens, standardized NCCLS protocols. Particulars: read-out: Minimum Inhibitory Concentrations. It counts as cell-based.
For the next data set, the system named is Streptococcus pneumoniae. The experiment in a line: microbe, parasite or virus in culture. Particulars: read-out: Minimum Inhibitory Concentrations.
The subject of the next data set is Staphylococcus aureus. The experiment in a line: microbe, parasite or virus in culture.
The next data set concerns Propionibacterium acnes. The data set can be described thus: microbe, parasite or virus in culture. Particulars: Cutibacterium acnes, read-out: Minimum Inhibitory Concentrations.
The next data set relates to S. aureus. The experiment in a line: Comparison of XMP.629 with standard topical agents (MIC90/MBC). It counts as cell-based, Staphylococcus aureus. Particulars: Staphylococcus aureus.
The next data set has as its system Enterococcus. It counts as cell-based.
Another data set deals with Corynebacterium. The data set can be described thus: microbe, parasite or virus in culture. Format: cell-based. To be noted: read-out: MIC90 of Standard Topical Agents.
The next data set relates to Clostridium difficile. The data set can be described thus: microbe, parasite or virus in culture. Particulars: Clostridioides difficile, read-out: Minimum Inhibitory Concentrations.
For the next data set, the system named is P. acnes. The data set can be described thus: microbe, parasite or virus in culture. Particulars: Cutibacterium acnes, read-out: MIC90 of Standard Topical Agents.
A further data set relates to patients. Particulars: clinical trials; cited from earlier work.

Converted amounts (≈) assume the structure as drawn. Where two headings read alike, the source gives them in different places.

Method for Corynebacterium: (§2) Control tubes containing only water or formulation buffer were prepared for each isolate. Initial growth controls were determined by removing 10 μL from the water control tube and diluting it by 100 fold. From this dilution, 10 μL was used for inoculation and for spreading over the surface onto Laked Blood Agar (LBA) (Anaerobe Systems, Morgan Hill, Calif.) plates. The tubes and plates were incubated in an anaerobic atmosphere at 37° C. for 48 h. […] MBC50 and 90 values represent where 50 and 90%, respectively, of the tested strain's MBC values are equal to or less than the indicated concentration.
Method for P. acnes: An in vitro assessment of antibiotic activity in XMP.629 and various known antibiotics against a representative panel of bacterial strains associated with acne was conducted. A broth dilution methodology was employed using guidelines established by National Committee for Clinical Laboratory Standards (NCCLS) for anaerobic organisms to establish an antibacterial profile for XMP.629. Assays to determine the minimal bactericidal concentrations (MBC) and minimal inhibitory concentration (MIC) were conducted for XMP.629 and other known antibiotics.
Inoculum from a representative panel of bacterial strains associated with acne, such as P. acnes, P. avidum, P. granulosum, and Staphylococcus epidermis was prepared by suspending approximately 5-10 isolated bacterial colonies in pre-reduced MicroScan® Inoculum Water (Dade Behring, Deerfield, Ill.), and growing the bacterial suspension to log phase (approximately 48 hrs). An inoculum of between 1-5×10^6/mL was achieved by adding 100 μL of the suspension to 25 mL Brain Heart Infusion Broth (BHI) (Anaerobe Systems, Morgan Hill, Calif.).
A stock solution of XMP.629 dissolved in water at a concentration of 4.0 mg/mL was prepared. Dilute solutions of XMP.629 at concentrations ranging from about 1.25 to about 160 μg/mL were made in either water or formulation buffer (130 mM sodium chloride, 0.2% P103 (poloxamer 333), and 0.10% EDTA, pH 7.3).
Control tubes containing only water or formulation buffer were prepared for each isolate. Initial growth controls were determined by removing 10 μL from the water control tube and diluting it by 100 fold. From this dilution, 10 μL was used for inoculation and for spreading over the surface onto Laked Blood Agar (LBA) (Anaerobe Systems, Morgan Hill, Calif.) plates. The tubes and plates were incubated in an anaerobic atmosphere at 37° C. for 48 h.
Method for S. aureus: as §2

`O=C(O)c1cn(C2CC2)c2cc(N3CCNCC3)c(F)cc2c1=O` [Ciprofloxacin]: the MIC in the data set with Streptococcus sobrinus is 2 µg/mL (≈ 6.04 µM); in the data set with Salmonella ryphimurium, not above 1 µg/mL; with Porphyromonas gingivalis it was not above 1 µg/mL; in [1], not above 1 µg/mL; in the data set on Serratia marcescens, 0.06 µg/mL (≈ 0.181 µM); with Burkholderia cepacia, 1 µg/mL (≈ 3.02 µM). For the same compound, the MIC with Escherichia coli (Escherichia coli 07:K1) was not above 0.25 µg/mL; in the data set on Escherichia coli (Escherichia coli 0111:B4) it was not above 0.063 µg/mL; with Prevotella intermedia, not above 1 µg/mL; in the data set with Klebsiella pneumoniae (Klebsiella pneumoniae 19645) it was 0.13 µg/mL (≈ 0.392 µM); with Klebsiella pneumoniae (Klebsiella pneumoniae 29011), not above 0.063 µg/mL; with Proteus mirabilis, not above 0.063 µg/mL. For the same compound, the MIC is not above 1 µg/mL in the data set with Macrococcus caseolyticus; 64 µg/mL (≈ 193 µM) in data set [2]; 0.13 µg/mL (≈ 0.392 µM) in the data set with Pseudomonas aeruginosa (read-out: Minimum Inhibitory Concentrations, Pseudomonas aeruginosa 9027); 0.13 µg/mL (≈ 0.392 µM) in the data set on Pseudomonas aeruginosa (read-out: Minimum Inhibitory Concentrations, Pseudomonas aeruginosa 19660); not above 1 µg/mL with Pseudomonas aeruginosa (read-out: Minimum Inhibitory Concentrations, Pseudomonas aeruginosa 27853); not above 1 µg/mL in the data set with Pseudomonas aeruginosa (read-out: Minimum Inhibitory Concentrations, Pseudomonas aeruginosa XS-65 (MDR)). In addition, the MIC in the data set with Enterococcus hirae was not above 1 µg/mL; in the data set on Streptococcus mutans (Streptococcus mutans 25175), 2 µg/mL (≈ 6.04 µM); in the data set with Streptococcus pneumoniae it was not above 1 µg/mL.

`CN[C@H](CC(C)C)C(=O)N[C@H]1C(=O)N[C@@H](CC(N)=O)C(=O)N[C@H]2C(=O)N[C@H]3C(=O)N[C@H](C(=O)N[C@H](C(=O)O)c4cc(O)cc(O)c4-c4cc3ccc4O)[C@H](O)c3ccc(c(Cl)c3)Oc3cc2cc(c3O[C@@H]2O[C@H](CO)[C@@H](O)[C@H](O)[C@H]2O[C@H]2C[C@](C)(N)[C@H](O)[C@H](C)O2)Oc2ccc(cc2Cl)[C@H]1O` [Vancomycin]: the MIC in the data set with Streptococcus sobrinus is 1 µg/mL (≈ 0.69 µM); in the data set with Staphylococcus aureus (BAA38|MRSA, read-out: Minimum Inhibitory Concentrations, Staphylococcus aureus BAA-38 (MRSA)), 1 µg/mL (≈ 0.69 µM); in the data set with Staphylococcus aureus (read-out: Minimum Inhibitory Concentrations, Staphylococcus aureus 6258) it was 2 µg/mL (≈ 1.38 µM); in the data set with Staphylococcus aureus (read-out: Minimum Inhibitory Concentrations, Staphylococcus aureus 11371), 1 µg/mL (≈ 0.69 µM); in the data set with Staphylococcus aureus (read-out: Minimum Inhibitory Concentrations, Staphylococcus aureus 12598), 1.25 µg/mL (≈ 0.863 µM); with Staphylococcus aureus (read-out: Minimum Inhibitory Concentrations, Staphylococcus aureus 19636) it was not above 1 µg/mL. Besides, the MIC was more than 64 µg/mL in data set [2], 2 µg/mL (≈ 1.38 µM) with Propionibacterium acnes, 2 µg/mL (≈ 1.38 µM) with Streptococcus mutans (Streptococcus mutans) and 1 µg/mL (≈ 0.69 µM) with Clostridium difficile. In addition, the MIC90 against S. aureus turned out to be 4 µg/mL (≈ 2.76 µM); with Corynebacterium, 0.5 µg/mL (≈ 0.345 µM); in the data set on P. acnes, 2 µg/mL (≈ 1.38 µM). In the data set on Enterococcus, the “MIC90 of Standard Topical Agents” value is given as 1.0/NE.

For the compound `O=C(O)CCCCCCCC(=O)O` [azelaic acid], the “patients reporting pruritus (itching), burning, stinging, and tingling” value in the data set on patients was 1-5%.
